Laboratory results as given in patent publication US20170305943A1, “COMPOUNDS FOR THE TREATMENT OF BACTERIAL INFECTIONS” (priority 2014, published 2017).
≈ marks a conversion by molar mass, not a printed value.

test system: Clostridium difficile (Isolate ID ATCC 9689); test: Bacterial Assay: Determination of Antibacterial Activity (MIC, broth microdilution or agar dilution); type: cell-based; details: Clostridioides difficile, ATCC9689, 48 h, read-out: C. difficile MIC Activity Range
Description: Bacterial Assay: Determination of Antibacterial Activity Compounds of the invention were tested for antimicrobial activity by susceptibility testing in liquid or on solid media. Minimum inhibitory concentrations (MICs) for compounds against each strain were determined by the broth microdilution or agar dilution method according to the guidelines of the Clinical Laboratories and Standards Institute, formerly the National Committee for Clinical Laboratory Standards (Clinical Laboratories and Standards Institute. Methods for Dilution Antimicrobial Susceptibility Tests for Bacteria That Grow Anaerobically; Approved Standard-Seventh Edition. Document M11-A7, CLSI, Wayne, Pa., 2007, Clinical Laboratories and Standards Institute). Briefly MICs were determined by visible inspection after 48 hours of growth in the presence of compounds, cultures were grown at 37° C. in anaerobic gas packs using reinforced clostridial medium supplemented with 0.1% defribrinated horse blood. The bacterial strains tested include C. difficile (Clostridium difficile (Isolate ID ATCC 9689)) (Table 2) and two drug resistant clinical isolates (Clostridium difficile (Isolate ID BI-9) and Clostridium difficile (Isolate ID 027-01) (Table 3).
MICs were determined to be within the activity ranges “A” activity≦1.01 μg/mL; “B” activity>1.0 μg/mL-4.0 μg/mL; “C” activity>4.0 μg/mL-16 μg/mL

| Compound | MIC [µg/mL] |
| --- | --- |
| NC(=O)c1c(F)ccc(OC(COC(=O)Cn2cccc2)c2nc(-c3ccc(C(F)(F)F)cc3)c(Br)o2)c1F (stereo not drawn) [Compound 40, 2-{5-bromo-4-[4-(trifluoromethyl)phenyl]-1,3-oxazol-2-yl}-2-(3-carbamoyl-2,4-difluorophenoxy)ethyl 1H-pyrrol-l-ylacetate] | < 1.01 |
| NC(=O)c1c(F)ccc(O[C@@H](CO)c2nc(-c3ccc(C(F)(F)F)cc3)c(Br)o2)c1F [Compound 41, 3-[(1S)-1-{5-bromo-4-[4-(trifluoromethyl)phenyl]-1,3-oxazol-2-yl}-2-hydroxyethoxy]-2,6-difluorobenzamide] | 1 to 4 (≈ 1.97 to 7.89 µM) |
| NC(=O)c1c(F)ccc(OC(COC(=O)CCCN2C(=O)c3ccccc3C2=O)c2nc(-c3ccc(C(F)(F)F)cc3)c(Br)o2)c1F (stereo not drawn) [Compound 42, 2-{5-bromo-4-[4-(trifluoromethyl)phenyl]-1,3-oxazol-2-yl}-2-(3-carbamoyl-2,4-difluorophenoxy)ethyl 4-(1,3-dioxo-1,3-dihydro-2H-isoindo1-2-yl)butanoate] | < 1.01 |
| NC(=O)c1c(F)ccc(OC(COP(=O)(O)O)c2nc(-c3ccc(C(F)(F)F)cc3)c(Br)o2)c1F (stereo not drawn) [Compound 43, 2-{5-bromo-4-[4-(trifluoromethyl)phenyl]-1,3-oxazol-2-yl}-2-(3-carbamoyl-2,4-difluorophenoxy)ethyl dihydrogen phosphate] | 1 to 4 |
| CCOC(=O)COCC(Oc1ccc(F)c(C(N)=O)c1F)c1nc(-c2ccc(C(F)(F)F)cc2)c(Br)o1 (stereo not drawn) [Compound 44, ethyl [2-{5-bromo-4-[4-(trifluoromethyl)phenyl]-1,3-oxazol-2-yl}-2-(3-carbamoyl-2,4-difluorophenoxy)ethoxy]acetate] | 4 to 16 (≈ 6.74 to 27 µM) |
| CC(=O)OCCCC(Oc1ccc(F)c(C(N)=O)c1F)c1nc(-c2ccc(C(F)(F)F)cc2)c(Br)o1 (stereo not drawn) [Compound 45, 4-{5-bromo-4-[4-(trifluoromethyl)phenyl]-1,3-oxazol-2-yl}-4-(3-carbamoyl-2,4-difluorophenoxy)butyl acetate] | 1 to 4 |
| NC(=O)c1c(F)ccc(OC(CCCO)c2nc(-c3ccc(C(F)(F)F)cc3)c(Br)o2)c1F (stereo not drawn) [Compound 46, 3-(1-{5-bromo-4-[4-(trifluoromethyl)phenyl]-1,3-oxazol-2-yl}-4-hydroxybutoxy)-2,6-difluorobenzamide] | 1 to 4 (≈ 1.87 to 7.47 µM) |
| CNC(=O)CCC(Oc1ccc(F)c(C(N)=O)c1F)c1nc(-c2ccc(C(F)(F)F)cc2)c(Br)o1 (stereo not drawn) [Compound 48, 3-[1-{5-bromo-4-[4-(trifluoromethyl)phenyl]-1,3-oxazol-2-yl}-4-(methylamino)-4-oxobutoxy]-2,6-difluorobenzamide] | 1 to 4 (≈ 1.78 to 7.11 µM) |
| CNC(=O)OCC(Oc1ccc(F)c(C(N)=O)c1F)c1nc(-c2ccc(C(F)(F)F)cc2)c(Br)o1 (stereo not drawn) [Compound 50, 2-{5-bromo-4-[4-(trifluoromethyl)phenyl]-1,3-oxazol-2-yl}-2-(3-carbamoyl-2,4-difluorophenoxy)ethyl methylcarbamate] | < 1.01 |
| CC(=O)OCC(Oc1ccc(F)c(C(N)=O)c1F)c1nc(-c2ccc(OC(F)(F)F)cc2)c(Br)o1 (stereo not drawn) [Compound 51, 2-{5-bromo-4-[4-(trifluoromethoxy)phenyl]-1,3-oxazol-2-yl}-2-(3-carbamoyl-2,4-difluorophenoxy)ethyl acetate] | < 1.01 |
| NC(=O)c1c(F)ccc(OC(CO)c2nc(-c3ccc(OC(F)(F)F)cc3)c(Br)o2)c1F (stereo not drawn) [Compound 52, 3-(1-{5-bromo-4-[4-(trifluoromethoxy)phenyl]-1,3-oxazol-2-yl}-2-hydroxyethoxy)-2,6-difluorobenzamide] | < 1.01 |
| NC(=O)c1c(F)ccc(OC(CCC(O)CO)c2nc(-c3ccc(C(F)(F)F)cc3)c(Br)o2)c1F (stereo not drawn) [Compound 53, 3-[(1-{5-bromo-4-[4-(trifluoromethyl)phenyl]-1,3-oxazol-2-yl}-4,5-dihydroxypentyl)oxy]-2,6-difluorobenzamide] | 1 to 4 (≈ 1.77 to 7.08 µM) |
| COC(=O)CCNC(=O)OCC(Oc1ccc(F)c(C(N)=O)c1F)c1nc(-c2ccc(C(F)(F)F)cc2)c(Br)o1 (stereo not drawn) [Compound 54, methyl N-{[2-{5-bromo-4-[4-(trifluoromethyl)phenyl]-1,3-oxazol-2-yl}-2-(3-carbamoyl-2,4-difluorophenoxy)ethoxy]carbonyl}-beta-alaninate] | 1 to 4 (≈ 1.57 to 6.29 µM) |
| CC(C)(C)OC(=O)NCCNC(=O)OCC(Oc1ccc(F)c(C(N)=O)c1F)c1nc(-c2ccc(C(F)(F)F)cc2)c(Br)o1 (stereo not drawn) [Compound 55, 2-{5-bromo-4-[4-(trifluoromethyl)phenyl]-1,3-oxazol-2-yl}-2-(3-carbamoyl-2,4-difluorophenoxy)ethyl tert-butyl ethane-1,2-diylbiscarbamate] | 1 to 4 (≈ 1.44 to 5.77 µM) |
| CN(CCNC(=O)OCC(Oc1ccc(F)c(C(N)=O)c1F)c1nc(-c2ccc(C(F)(F)F)cc2)c(Br)o1)C(=O)OC(C)(C)C (stereo not drawn) [Compound 56, tert-butyl [2-({[2-{5-bromo-4-[4-(trifluoromethyl)phenyl]-1,3-oxazol-2-yl}-2-(3-carbamoyl-2,4-difluorophenoxy)ethoxy]carbonyl}amino)ethyl]methyl carbamate (non-preferred name)] | 1 to 4 (≈ 1.41 to 5.65 µM) |
| NC(=O)c1c(F)ccc(OC(COC(=O)N2CCOCC2)c2nc(-c3ccc(C(F)(F)F)cc3)c(Br)o2)c1F (stereo not drawn) [Compound 58, 2-{5-bromo-4-[4-(trifluoromethyl)phenyl]-1,3-oxazol-2-yl}-2-(3-carbamoyl-2,4-difluorophenoxy)ethyl morpholine-4-carboxylate] | 4 to 16 (≈ 6.45 to 25.8 µM) |
| NC(=O)c1c(F)ccc(OC(COC(=O)NCCO)c2nc(-c3ccc(C(F)(F)F)cc3)c(Br)o2)c1F (stereo not drawn) [Compound 59, 2-{5-bromo-4-[4-(trifluoromethyl)phenyl]-1,3-oxazol-2-yl}-2-(3-carbamoyl-2,4-difluorophenoxy)ethyl (2-hydroxyethyl)carbamate] | < 1.01 |
| COCCNC(=O)OCC(Oc1ccc(F)c(C(N)=O)c1F)c1nc(-c2ccc(C(F)(F)F)cc2)c(Br)o1 (stereo not drawn) [Compound 60, 2-{5-bromo-4-[4-(trifluoromethyl)phenyl]-1,3-oxazol-2-yl}-2-(3-carbamoyl-2,4-difluorophenoxy)ethyl (2-methoxyethyl)carbamate] | < 1.01 |
| NC(=O)c1c(F)ccc(OC(COC(=O)NCc2ccccn2)c2nc(-c3ccc(C(F)(F)F)cc3)c(Br)o2)c1F (stereo not drawn) [Compound 61, 2-{5-bromo-4-[4-(trifluoromethyl)phenyl]-1,3-oxazol-2-yl}-2-(3-carbamoyl-2,4-difluorophenoxy)ethyl (pyridin-2-ylmethyl)carbamate] | 1 to 4 (≈ 1.56 to 6.24 µM) |
| NC(=O)c1c(F)ccc(OC(COC(=O)NCc2cccnc2)c2nc(-c3ccc(C(F)(F)F)cc3)c(Br)o2)c1F (stereo not drawn) [Compound 62, 2-{5-bromo-4-[4-(trifluoromethyl)phenyl]-1,3-oxazol-2-yl}-2-(3-carbamoyl-2,4-difluorophenoxy)ethyl (pyridin-3-ylmethyl)carbamate] | 1 to 4 (≈ 1.56 to 6.24 µM) |
| NC(=O)c1c(F)ccc(OC(COC(=O)NCc2ccncc2)c2nc(-c3ccc(C(F)(F)F)cc3)c(Br)o2)c1F (stereo not drawn) [Compound 63, 2-{5-bromo-4-[4-(trifluoromethyl)phenyl]-1,3-oxazol-2-yl}-2-(3-carbamoyl-2,4-difluorophenoxy)ethyl (pyridin-4-ylmethyl)carbamate] | < 1.01 |
| Cc1nnc(CNC(=O)OCC(Oc2ccc(F)c(C(N)=O)c2F)c2nc(-c3ccc(C(F)(F)F)cc3)c(Br)o2)o1 (stereo not drawn) [Compound 65, 2-{5-bromo-4-[4-(trifluoromethyl)phenyl]-1,3-oxazol-2-yl}-2-(3-carbamoyl-2,4-difluorophenoxy)ethyl [(5-methyl-1,3,4-oxadiazol-2-yl)methyl]carbamate] | 1 to 4 (≈ 1.55 to 6.19 µM) |
| NC(=O)c1c(F)ccc(OC(COC(=O)Nc2ccncc2)c2nc(-c3ccc(C(F)(F)F)cc3)c(Br)o2)c1F (stereo not drawn) [Compound 67, 2-{5-bromo-4-[4-(trifluoromethyl)phenyl]-1,3-oxazol-2-yl}-2-(3-carbamoyl-2,4-difluorophenoxy)ethyl pyridin-4-ylcarbamate] | 1 to 4 (≈ 1.59 to 6.38 µM) |
| Cc1noc(CNC(=O)OCC(Oc2ccc(F)c(C(N)=O)c2F)c2nc(-c3ccc(C(F)(F)F)cc3)c(Br)o2)n1 (stereo not drawn) [Compound 68, 2-{5-bromo-4-[4-(trifluoromethyl)phenyl]-1,3-oxazol-2-yl}-2-(3-carbamoyl-2,4-difluorophenoxy)ethyl [(3-methyl-1,2,4-oxadiazol-5-yl)methyl]carbamate] | 1 to 4 (≈ 1.55 to 6.19 µM) |
| CSc1oc(C(CO)Oc2ccc(F)c(C(N)=O)c2F)nc1-c1ccc(C(F)(F)F)cc1 (stereo not drawn) [Compound 69, 2,6-difluoro-3-(2-hydroxy-1-{5-(methylthio)-4-[4-(trifluoromethyl)phenyl]-1,3-oxazol-2-yl}ethoxy)benzamide] | < 1.01 |
| NC(=O)c1c(F)ccc(O[C@H](COC(=O)CCC(=O)O)c2nc(-c3ccc(C(F)(F)F)cc3)c(Br)o2)c1F [Compound 70, 4-[(2R)-2-{5-bromo-4-[4-(trifluoromethyl)phenyl]-1,3-oxazol-2-yl}-2-(3-carbamoyl-2,4-difluorophenoxy)ethoxy]-4-oxobutanoic acid] | < 1.01 |
| CN(Cc1ccncc1)C(=O)OCC(Oc1ccc(F)c(C(N)=O)c1F)c1nc(-c2ccc(C(F)(F)F)cc2)c(Br)o1 (stereo not drawn) [Compound 71, 2-{5-bromo-4-[4-(trifluoromethyl)phenyl]-1,3-oxazol-2-yl}-2-(3-carbamoyl-2,4-difluorophenoxy)ethyl methyl(pyridin-4-ylmethyl)carbamate] | 4 to 16 (≈ 6.1 to 24.4 µM) |
